# Results: patent US10987403B2, “Cyclodextrin-Nle3-A(1-7) compositions and their use” (University of Southern California, priority 2017, dated 2021)
# Where no end group is shown, it is not given here. [ ]: non-standard residue; d: D form. Nle = CCCC[C@H](N)C(=O)O
# How the values were obtained:
# gemcitabine-treated mice [1] = experiment: White blood cell counts in gemcitabine-treated mice (oral efficacy study); type: in vivo, C57Bl/6 mice; settings: subcutaneous, 0.3 mg/kg daily for 21 days after 160 mg/kg gemcitabine; FIG. 1
# Method: (§1) The female C57Bl/6 mice (7 per group), 6-8 weeks old, were treated with the formulations described above daily starting 1 day after intravenous injection with chemotherapy, 160 mg/kg gemcitabine. On days 1, 3, 7, 15 and 21 after chemotherapy administration, blood was taken under anesthesia from the saphenous vein to assess white blood cell, and platelet numbers. On day 22, the mice were euthanized and bone marrow collected to assess the number of colony forming units.
# (§2) The mice were bled from the saphenous vein. The mice were anesthetized by placing the nose of the animals in a 50 ml conical tube containing cotton balls soaked with isoflurane (an inhaled anesthesia). […]
# (§3) Twenty μl of blood was mixed with 180 μl of RBC lysing solution (0.83% NH4Cl, 10 mM EDTA, 0.5% NaHCO3). […] This mixture was vortexed and the number of WBC was evaluated by hematocytometer under light microscopy and the number of platelets was evaluated by hematocytometer under phase contrast microscopy.
# (§4) In order to assess the oral efficacy, gemcitabine-treated mice were treated daily for 21 days with five treatments: 1) SQ dosed saline, 2) SQ dosed A(1-7) at 0.3 mg/kg, 3) SQ dosed NorLeu3-A(1-7) at 0.3 mg/kg, 4) orally dosed β-CD formulated A(1-7) at 0.3 mg/kg, or 5) orally dosed β-CD formulated NorLeu-A(1-7)) at 0.3 mg/kg. The effects of these treatments on peripheral blood counts were assessed.
# gemcitabine-treated mice [2] = experiment: Platelet counts in gemcitabine-treated mice (oral efficacy study); type: in vivo, C57Bl/6 mice; settings: subcutaneous, 0.3 mg/kg daily for 21 days after 160 mg/kg gemcitabine; FIG. 3
# Method: as §1, §2, §3, §4
Substance,number of circulating WBC (gemcitabine-treated mice [1]),circulating platelet numbers (gemcitabine-treated mice [2])
"Asp-Arg-Nle-Tyr-Ile-His-Pro (DR[Nle]YIHP) [NorLeu3-A(1-7), dosed subcutaneously as comparator]",increased the number of circulating WBC,did not circulating platelet numbers
"angiotensin (1-7) (DRVYIHP; Angiotensin 1-7; UniProt P01019 25-31, looked up, fragment) [A(1-7), Investigational Mas agonist peptide]",increased the number of circulating WBC,–
